We go through 2 molecules from PubChem BioAssay AID1919008 (Molecular Pharmacology Branch, DTP, NCI, 2023).

Structures are written as SMILES. “And” between values parts separate entries of the source, which are not always exact repeats. Equal entries are not always repeated.

For the assay, the system named is DMS-114 complex spheroids with HUVEC/MSC, growth % test/control. In words: Anticancer human tumor DMS-114 cell line growth inhibition [AhR].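 As to all read-outs here: spheroids exposed to agents for 7 days before readout.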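 As to viability, T/C: 100% = DMSO vehicle control wells.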 The conditions noted are these: for IC50: curve of first compound; for viability, T/C: stronger effect = lower value. An excerpt:
Multicellular complex tumor spheroid response to aryl hydrocarbon receptor antagonists in combination with a variety of drugs and investigational agents in selected tumor cell lines
The current study was undertaken to assess response to aryl hydrocarbon receptor antagonists in combination with standard-of-care drugs and investigational agents in solid tumor complex spheroid models. Complex spheroids include a stromal component modeled by human endothelial cells (HUVEC) and fibroblasts modeled by human mesenchymal stem cells (MSCs). The concentration ranges selected for each drug and investigational agent were based upon clinically achievable concentrations if the clinical Cmax of the agent was known.
Compounds. The drugs and investigational agents: BAY 2416964 (NSC825713), GNF351 (NSC835774), CH-223191 (NSC835775), CPI-455 (NSC825282), aza-TdCyd (NSC777586), decitabine (NSC127716), belinostat (NSC758774), entinostat (NSC756642), pevonedistat (NSC761192), tazemetostat (NSC777109), talazoparib (NSC765396), olaparib (NSC753686), selinexor (NSC780203), nedisertib (M3814, NSC802822), bortezomib (NSC756655), venetoclax (NSC766270), doxorubicin (NSC123127), elimusertib (BAY189344, NSC800525), ceralasertib (AZD6738, NSC777638), TAK-243 (NSC785004), alisertib (NSC759677), etoposide (NSC141540), topotecan (NSC609699), eribulin (NSC707389), gemcitabine (NSC613327), carboplatin (NSC241240), cisplatin (NSC119875), and SN-38 (NSC673596) were obtained from the National Cancer Institute (NCI) Developmental Therapeutics Program Chemical Repository (32). The FDA-approved anticancer drug set is available from the Developmental Therapeutics Program at https://dtp.cancer.gov/organization/dscb/obtaining/available plates.htm. […] The stock solutions were prepared in dimethyl sulfoxide (DMSO, Sigma-Aldrich, St. Louis, MO, cat. D2650), except for the platinum compounds which were prepared in saline (Quality Biological, Gaithersburg, MD, cat. 114-055-101), at 800-fold the tested concentration and stored at -70 degrees C prior to their use. All drugs and investigational agents were tested over a range starting from a high concentration at or near the clinical Cmax and decreasing in half-log increments. If the clinical Cmax for an agent had not been determined, the highest concentration tested was 10 microM (Table 1).
Cell Culture. All cells were maintained in an incubator at 37 degrees C and 5% CO2 with 95% humidity. The PDC lines were cultured according to standard operating procedures established by the NCI PDMR (https://pdmr.cancer.gov). Briefly, all PDCs were thawed and cultured in Matrigel-coated flasks prepared with a working solution of 1X Ham's F-12 nutrient mix, without supplementation (Invitrogen, Waltham, MA, cat. 11765054), 100 U/mL penicillin-streptomycin (Invitrogen, cat. 15140122), and 2.5% Matrigel (Corning Inc., Corning, NY, cat. 354248) for the first three passages. All PDCs were cultured in complete DMEM/F-12 media containing advanced DMEM/F-12 (Invitrogen, cat. 12634028), 4.9% defined fetal bovine serum, heat inactivated (HyClone Laboratories Inc., Logan, UT, cat. SH30070.03HI), 389 ng/mL hydrocortisone (Sigma-Aldrich, cat. H4001), 9.7 ng/mL human EGF recombinant protein (Invitrogen, cat. PHG0313), 23.4 microg/mL adenine (Sigma-Aldrich, cat. A2786), 97.3 U/mL penicillin-streptomycin (Invitrogen, cat. 15140122), 1.9 mM L-glutamine (Invitrogen, cat. 25030081), and 9.7 microM Y-27632 dihydrochloride (Tocris Bioscience, Bristol, United Kingdom, cat. 1254). The PDCs were cultured in complete DMEM/F12 media without 10 microM Y-27632 dihydrochloride for at least two passages prior to the screen. The established cell lines NCI-H1341 and […] were cultured in DMEM/F-12, HEPES (Invitrogen, cat. 11330032), 5% defined fetal bovine serum (HyClone Laboratories Inc., cat. SH30070.03), ITS premix universal culture supplement [insulin (5 microg/mL), transferrin (5 microg/mL), and selenious acid (5 ng/mL)] […]

Regarding `O=C(c1cc(Cc2n[nH]c(=O)c3ccccc23)ccc1F)N1CCN(C(=O)C2CC2)CC1` + Cc1cncc(-c2nc(NCCc3c[nH]c4ccccc34)c3ncn(C(C)C)c3n2)c1, the IC50 (second compound 0.1 µM) is 9.12 µM; the IC50 (second compound 0.316 µM) turned out to be 9.82 µM; the IC50 (second compound 1 µM) is above 10 µM; the IC50 (second compound 3.16 µM) was above 10 µM; the IC50 (second compound 10 µM) was below 0.0316 µM. In addition, the viability, T/C runs as follows: (second compound 0.1 µM, first compound 0.0316 µM) 92.1%; (second compound 0.1 µM, first compound 0.1 µM) 102%; (second compound 0.1 µM, first compound 0.316 µM) 105%; (second compound 0.1 µM, first compound 1 µM) 98.1%; (second compound 0.1 µM, first compound 3.16 µM) 91.4%; (second compound 0.1 µM, first compound 10 µM) 46.4%. Also, the viability, T/C is 108% (second compound 0.316 µM, first compound 0.0316 µM); 96% (second compound 0.316 µM, first compound 0.1 µM); 102% (second compound 0.316 µM, first compound 0.316 µM); 102% (second compound 0.316 µM, first compound 1 µM); 89.4% (second compound 0.316 µM, first compound 3.16 µM); 49.1% (second compound 0.316 µM, first compound 10 µM). Moreover, the viability, T/C runs as follows: (second compound 1 µM, first compound 0.0316 µM) 96.7%; (second compound 1 µM, first compound 0.1 µM) 94.4%; (second compound 1 µM, first compound 0.316 µM) 76.1%; (second compound 1 µM, first compound 1 µM) 95.2%; (second compound 1 µM, first compound 3.16 µM) 83.7%; (second compound 1 µM, first compound 10 µM) 58.3%. Further, the viability, T/C is 89.9% (second compound 3.16 µM, first compound 0.0316 µM); 92.2% (second compound 3.16 µM, first compound 0.1 µM); 77.9% (second compound 3.16 µM, first compound 0.316 µM); 85% (second compound 3.16 µM, first compound 1 µM); 73.9% (second compound 3.16 µM, first compound 3.16 µM); 50.4% (second compound 3.16 µM, first compound 10 µM). Besides, the viability, T/C by setting is: (second compound 10 µM, first compound 0.0316 µM) 31.8%; (second compound 10 µM, first compound 0.1 µM) 46.6%; (second compound 10 µM, first compound 0.316 µM) 35.3%; (second compound 10 µM, first compound 1 µM) 37%; (second compound 10 µM, first compound 3.16 µM) 27.8%; (second compound 10 µM, first compound 10 µM) 22.1%.

Regarding `COc1cc(Nc2ncc3c(n2)-c2ccc(Cl)cc2C(c2c(F)cccc2OC)=NC3)ccc1C(=O)O`, the viability, T/C is, setting by setting: (compound 0.0316 µM) 24.8% and 65.8% and 25.6%; (compound 0.1 µM) 24.5% and 56.9% and 27.2%; (compound 0.316 µM) 40% and 108% and 56%; (compound 1 µM) 65.1% and 114% and 79%; (compound 3.16 µM) 64% and 116% and 85.6%; (compound 10 µM) 74.5% and 104% and 61.2%.

Broadly, the IC50 is the concentration that gives 50% inhibition. In general, viability, T/C refers to the ratio of treated to control.
